# Measured values: ChEMBL document CHEMBL1149341, “Two novel immunosuppressive pregnane glycosides from the roots of Stephanotis mucronata” (Bioorg Med Chem Lett, 2006)
# How the values were obtained:
# [1] = test system: Splenocyte; assay: Inhibition of LPS-stimulated mouse splenocyte proliferation by MTT method; assay type: functional, cell-based
# [2] = test system: Splenocyte; assay: Inhibition of concanavalin A-stimulated mouse splenocyte proliferation by MTT method; assay type: functional, cell-based
Compound,Activity [1],Activity [2]
CO[C@H]1[C@@H](O)[C@H](O[C@H]2[C@@H](OC)C[C@H](O[C@H]3[C@@H](OC)C[C@H](O[C@H]4CC[C@@]5(C)C(=CC[C@]6(O)C5C[C@@H](OC(=O)c5cccnc5)[C@@]5(C)[C@]6(O)CC[C@@]5(O)[C@@H](C)OC(=O)/C=C/c5ccccc5)C4)O[C@@H]3C)O[C@@H]2C)O[C@H](C)[C@H]1O[C@@H]1O[C@H](CO)[C@@H](O)[C@H](O)[C@H]1O (some centres undefined),Dose-dependent effect,Dose-dependent effect
CNc1ccccc1C(=O)O[C@H](C)[C@]1(O)CC[C@@]2(O)[C@]1(C)[C@H](OC(C)=O)C[C@@H]1[C@@]3(C)CC[C@H](O[C@H]4C[C@H](OC)[C@H](OC5C[C@H](OC)[C@H](O[C@@H]6O[C@H](C)[C@@H](O[C@@H]7O[C@H](CO)[C@@H](O)[C@H](O)[C@H]7O)[C@@H](OC)[C@H]6O)[C@@H](C)O5)[C@@H](C)O4)C[C@@H]3CC[C@]12O (some centres undefined),Dose-dependent effect,Dose-dependent effect
